The nature of the series: DTNB assay: stability of the S—S bond to 20% v/v piperidine in DMF (Fmoc-SPPS conditions). To be noted: 20% v/v piperidine in DMF for 6 h, absorbance at 308 and 412 nm. In kind it is physicochemical. An excerpt:
Prior to exploring further applications of the novel disulfide-bridged amino acid, the stability of its —S—S— bond to reagents/conditions employed during Fmoc-SPPS had to be established. For each deprotection step performed during peptide synthesis, a resin bound random amino acid is exposed to basic reagents with 20% v/v piperidine in DMF. —S—S— bond stability to these basic conditions was therefore trialled using a di-Boc protected disulfide bridged amino acid of the invention (compound 11), since the Boc protecting groups themselves would be stable to the basic conditions. […] Premature reduction of the disulfide-containing amino acid by piperidine would lead to the formation of free thiols that react with DTNB releasing NTB^2−, which can be readily identified spectrophotometrically at 412 nm.
DTNB (1 mg) was dissolved in 1 mL of methanol and a 1 mg/mL stock solution was prepared. A DTNB calibration curve was prepared by measurement of the absorbance (λmax=308 nm) over a range of concentrations (5, 10, 15, 20, and 25 μg/mL) in the presence of 20% v/v piperidine in DMF (100 μL). […]
Stability of the disulfide-bridged amino acid (compound 11) to basic conditions was assessed next, where it was first incubated with 20% v/v piperidine in DMF for up to 6 h and from that different concentrations of samples were prepared. […]

For the compound `COC(=O)[C@H](CSSC(C)(C)CNC(=O)OC(C)(C)C)NC(=O)OC(C)(C)C` [compound 11, Boc-Cys(S—SC(CH3)2CH2NH(Boc))—OCH3], the “Base stability of the S—S bond (free thiols generated/detected)” value is “no free thiols were generated/detected”.

For the origin of these results see US11566044B2, “Disulfide bond containing compounds and uses thereof” (THE UNIVERSITY OF QUEENSLAND, priority 2017, dated 2023).
